# Several values for one entry are separate records, joined by “and”; a condition that tells them apart may be missing. Equal entries are not always repeated. Toxic doses and inconclusive results are not listed. Peptide text beside a SMILES is read from it. * marks the point of attachment. Cbz = O=C(OCc1ccccc1)*
# Test system: P388 leukemia ip, CD2F1 mice, survival T/C
# Experiment: NCI In Vivo Anticancer Drug Screen. Data for tumor model P388 Leukemia (intraperitoneal) in CD2F1 (CDF1) mice
# Conditions: endpoint: median survival time, higher = longer survival
# In short: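 Mice carrying the transplanted tumor received test compound or vehicle. Survival was recorded in each group, and the value is the treated-group measurement divided by that of the vehicle-treated control group.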
# [1] = dose: 12.5 mg/kg/injection, schedule: Q01DX009 (ip), vehicle: saline with Tween-80
# [2] = dose: 25.0 mg/kg/injection, schedule: Q01DX009 (ip), vehicle: saline with Tween-80
# [3] = dose: 50.0 mg/kg/injection, schedule: Q01DX009 (ip), vehicle: saline with Tween-80
# [4] = dose: 50.0 mg/kg/injection, schedule: Q01DX005 (ip), vehicle: saline with Tween-80
# [5] = dose: 100.0 mg/kg/injection, schedule: Q01DX005 (ip), vehicle: saline with Tween-80
# [6] = dose: 200.0 mg/kg/injection, schedule: Q01DX005 (ip), vehicle: saline with Tween-80
# [7] = dose: 50.0 mg/kg/injection, schedule: Q01DX009 (ip), vehicle: Klucel (hydroxypropylcellulose) (HPC)
# [8] = dose: 100.0 mg/kg/injection, schedule: Q01DX009 (ip), vehicle: Klucel (hydroxypropylcellulose) (HPC)
# [9] = dose: 200.0 mg/kg/injection, schedule: Q01DX009 (ip), vehicle: Klucel (hydroxypropylcellulose) (HPC)
# [10] = dose: 100.0 mg/kg/injection, schedule: Q04DX002 (ip), vehicle: Klucel (hydroxypropylcellulose) (HPC)
# [11] = dose: 200.0 mg/kg/injection, schedule: Q04DX002 (ip), vehicle: Klucel (hydroxypropylcellulose) (HPC)
# [12] = dose: 400.0 mg/kg/injection, schedule: Q04DX002 (ip), vehicle: Klucel (hydroxypropylcellulose) (HPC)
# [13] = dose: 100.0 mg/kg/injection, schedule: Q01DX009 (ip), vehicle: saline with Tween-80
# [14] = dose: 200.0 mg/kg/injection, schedule: Q01DX009 (ip), vehicle: saline with Tween-80
# [15] = dose: 50.0 mg/kg/injection, schedule: Q01DX005 (ip), vehicle: Klucel (hydroxypropylcellulose) (HPC)
# [16] = dose: 100.0 mg/kg/injection, schedule: Q01DX005 (ip), vehicle: Klucel (hydroxypropylcellulose) (HPC)
# [17] = dose: 100.0 mg/kg/injection, schedule: Q04DX003 (ip), vehicle: saline with Tween-80
# [18] = dose: 200.0 mg/kg/injection, schedule: Q01DX005 (ip), vehicle: Klucel (hydroxypropylcellulose) (HPC)
smiles,measurement,setting,value
Cc1cc(O)c(C(=O)O)c2c1CCC(C1(C)CO1)C2 (stereo not drawn),T/C,"dose: 1.56 mg/kg/injection, schedule: Q01DX005 (ip), vehicle: Klucel (hydroxypropylcellulose) (HPC)",100 % of control
same,T/C,"dose: 3.12 mg/kg/injection, schedule: Q01DX005 (ip), vehicle: Klucel (hydroxypropylcellulose) (HPC)",101 % of control
same,T/C,"dose: 6.25 mg/kg/injection, schedule: Q01DX005 (ip), vehicle: Klucel (hydroxypropylcellulose) (HPC)",100 % of control
same,T/C,"dose: 12.5 mg/kg/injection, schedule: Q01DX005 (ip), vehicle: Klucel (hydroxypropylcellulose) (HPC)",105 % of control
same,T/C,"dose: 25.0 mg/kg/injection, schedule: Q01DX005 (ip), vehicle: Klucel (hydroxypropylcellulose) (HPC)",107 % of control
ClC1=C(Cl)C(Cl)=C(Cl)C1=Cc1ccccc1,T/C,"dose: 6.25 mg/kg/injection, schedule: Q01DX009 (ip), vehicle: saline with Tween-80",108 % of control
same,T/C,[1],118 % of control
same,T/C,[2],117 % of control
same,T/C,[3],123 % of control
O=C(NC(Cc1ccccc1)C(=O)NC(CO)C(=O)O)OCc1ccccc1 (stereo not drawn) (Cbz-Phe-Ser-OH; configuration not given here),T/C,[4],100 % of control
same,T/C,[5],100 % of control
same,T/C,[6],98 % of control
O=C(O)c1cc(-c2ccc(Cl)c(Cl)c2)nc2cc3ccccc3cc12,T/C,[7],110 % of control
same,T/C,[8],106 % of control
same,T/C,[9],95 % of control
COC(=O)CC1(C(=O)OC)c2ccc3c(C(=O)C(F)(F)F)cccc3c2N2CCCC21 (stereo not drawn),T/C,"dose: 100.0 mg/kg/injection, schedule: Q04DX002 (ip), vehicle: saline",101 % of control
same,T/C,"dose: 200.0 mg/kg/injection, schedule: Q04DX002 (ip), vehicle: saline",102 % of control
same,T/C,"dose: 400.0 mg/kg/injection, schedule: Q04DX002 (ip), vehicle: saline",102 % of control
Cc1cccc(C)c1N=CNc1c(C)cccc1C.[Cu+2],T/C,[2],101 % of control and 103 % of control and 118 % of control
OC(CCCN1CCN2CCc3[nH]c4ccccc4c3C2C1)c1ccc(F)cc1 (stereo not drawn),T/C,[10],100 % of control
same,T/C,[11],95 % of control
same,T/C,[12],100 % of control
COc1ccc(C2=CC(=O)N(C(C)C)C2=O)cc1,T/C,[1],107 % of control
same,T/C,[2],116 % of control
same,T/C,[3],107 % of control
same,T/C,[13],108 % of control
same,T/C,[14],109 % of control
C1CCCCC2=NCCC(CCCC1)C2 (stereo not drawn),T/C,[15],103 % of control
same,T/C,[16],107 % of control
O=c1[nH]cnc2ccc3cn[nH]c3c12,T/C,[4],100 % of control
same,T/C,[5],105 % of control
same,T/C,[6],106 % of control
c1ccc2c3c([nH]c2c1)CCN1CCN(CCc2ccncc2)CC31 (stereo not drawn),T/C,[10],100 % of control
same,T/C,[11],101 % of control
same,T/C,[12],96 % of control
CCCn1c(Cl)c(/C=N\Nc2ccc([N+](=O)[O-])cc2[N+](=O)[O-])c2ccccc21,T/C,[17],92 % of control
same,T/C,"dose: 200.0 mg/kg/injection, schedule: Q04DX003 (ip), vehicle: saline with Tween-80",97 % of control
same,T/C,"dose: 400.0 mg/kg/injection, schedule: Q04DX003 (ip), vehicle: saline with Tween-80",92 % of control
O=C1C[C@@H]2OC3=C(C(=O)CCC3)[C@@H]2O1,T/C,"dose: 60.0 mg/kg/injection, schedule: Q01DX005 (ip), vehicle: saline",102 % of control
same,T/C,"dose: 120.0 mg/kg/injection, schedule: Q01DX005 (ip), vehicle: saline",121 % of control
same,T/C,"dose: 240.0 mg/kg/injection, schedule: Q01DX005 (ip), vehicle: saline",119 % of control
Cc1c2cc(Cl)ccc2c(CSC(=N)N)c2ccc3ccccc3c12,T/C,"dose: 50.0 mg/kg/injection, schedule: Q04DX002 (ip), vehicle: Klucel (hydroxypropylcellulose) (HPC)",100 % of control
same,T/C,[10],102 % of control
same,T/C,[11],107 % of control
Cc1sc(N=Nc2ccc(N(C)C)cc2)[n+]([O-])c1C,T/C,[7],111 % of control
same,T/C,[8],102 % of control
same,T/C,[9],104 % of control
CC(C)(C)c1ccc(C2=NNC(C(F)(F)F)=NN2)cc1,T/C,[3],110 % of control
same,T/C,[13],104 % of control
same,T/C,[14],119 % of control
NC(=N\O)/C(N)=N\O,T/C,[7],100 % of control
same,T/C,[8],98 % of control
same,T/C,[9],106 % of control
Oc1ccccc1C=Nc1c(Cl)cc(Cl)cc1Cl,T/C,[15],105 % of control
same,T/C,[16],109 % of control
same,T/C,[18],107 % of control
O=C1OC[C@H]2[C@H](c3ccc(O)c(O)c3)c3cc(O)c(O)cc3C[C@H]12,T/C,[4],95 % of control
same,T/C,[5],95 % of control
same,T/C,[6],92 % of control
COc1cc2c(cc1OC(C)=O)C(=O)CCC=C2,T/C,"dose: 33.0 mg/kg/injection, schedule: Q04DX003 (ip), vehicle: saline",100 % of control
same,T/C,"dose: 50.0 mg/kg/injection, schedule: Q04DX003 (ip), vehicle: saline",104 % of control
same,T/C,"dose: 75.0 mg/kg/injection, schedule: Q04DX003 (ip), vehicle: saline",112 % of control
same,T/C,"dose: 400.0 mg/kg/injection, schedule: Q04DX003 (ip), vehicle: saline",120 % of control
CN1CCC(O)(c2ncc(Br)c3ccccc23)CC1,T/C,"dose: 60.0 mg/kg/injection, schedule: Q01DX005 (ip), vehicle: saline + alcohol",97 % of control
same,T/C,"dose: 120.0 mg/kg/injection, schedule: Q01DX005 (ip), vehicle: saline + alcohol",93 % of control
C[C@]12C=CC(=O)C=C1CC[C@@H]1[C@@H]2[C@@H](O)C[C@@]2(C)[C@H]1CC[C@]2(O)C(=O)COC(=O)CCC(=O)O,T/C,"dose: 66.0 mg/kg/injection, schedule: Q01DX009 (ip), vehicle: saline with Tween-80",109 % of control
same,T/C,[13],109 % of control
same,T/C,"dose: 150.0 mg/kg/injection, schedule: Q01DX009 (ip), vehicle: saline with Tween-80",109 % of control
O=[N+]([O-])O.O=[N+]([O-])O.[NH-]C(c1ccccc1)C([NH-])c1ccccc1.[Pt+2] (stereo not drawn),T/C,"dose: 6.25 mg/kg/injection, schedule: Q04DX002 (ip), vehicle: saline",161 % of control
same,T/C,"dose: 12.5 mg/kg/injection, schedule: Q04DX002 (ip), vehicle: saline",154 % of control
same,T/C,"dose: 25.0 mg/kg/injection, schedule: Q04DX002 (ip), vehicle: saline",154 % of control
CN(C)c1nnnn1Cc1ccccc1,T/C,[15],97 % of control
same,T/C,[16],97 % of control
same,T/C,[18],106 % of control
Cc1cnc(SC2C3CC4CC(C3)CC2C4)c(C)c1 (stereo not drawn),T/C,[7],99 % of control
same,T/C,[8],94 % of control
same,T/C,[9],88 % of control
N#Cc1c(-c2ccccc2)nc2sccn12,T/C,"dose: 100.0 mg/kg/injection, schedule: Q01DX001 (ip), vehicle: Klucel (hydroxypropylcellulose) (HPC)",88 % of control
same,T/C,"dose: 400.0 mg/kg/injection, schedule: Q01DX001 (ip), vehicle: Klucel (hydroxypropylcellulose) (HPC)",91 % of control
S=P(Oc1cc(Cl)cc(Cl)c1)(Oc1cc(Cl)cc(Cl)c1)Oc1cc(Cl)cc(Cl)c1,T/C,[15],97 % of control
same,T/C,[16],100 % of control
same,T/C,[18],100 % of control
O=C(/C(=C\c1ccc(F)cc1)S(=O)(=O)c1ccc(F)cc1)c1ccccc1,T/C,[4],110 % of control
same,T/C,[5],102 % of control
same,T/C,[6],103 % of control
Clc1ccc(-c2nnc(-c3ccccc3)o2)cc1Cl,T/C,[7],112 % of control
same,T/C,[8],105 % of control
same,T/C,[9],112 % of control
same,T/C,"dose: 400.0 mg/kg/injection, schedule: Q01DX009 (ip), vehicle: Klucel (hydroxypropylcellulose) (HPC)",100 % of control
COC(=O)[C@@]12OC[C@]34[C@H]([C@@H](O)[C@@H]1O)[C@@]1(C)CC(=O)C(OC(=O)CC(=O)OC5=C(C)[C@@H]6C[C@H]7OC(=O)[C@H](OC(=O)C=C(C)C)[C@H]8[C@]9(C(=O)OC)OC[C@]78[C@H]([C@@H](O)[C@@H]9O)[C@@]6(C)CC5=O)=C(C)[C@@H]1C[C@H]3OC(=O)[C@H](OC(=O)C=C(C)C)[C@@H]24,T/C,"dose: 0.3 mg/kg/injection, schedule: Q01DX009 (ip), vehicle: saline with Tween-80",106 % of control
same,T/C,"dose: 0.6 mg/kg/injection, schedule: Q01DX009 (ip), vehicle: saline with Tween-80",107 % of control
same,T/C,"dose: 0.9 mg/kg/injection, schedule: Q01DX009 (ip), vehicle: saline with Tween-80",113 % of control
CCC/C(=N\N=C(N)N)c1ccc(Cl)cc1,T/C,"dose: 25.0 mg/kg/injection, schedule: Q04DX002 (ip), vehicle: saline with Tween-80",100 % of control
COc1ccc(-c2cc(O)c3c(c2N)C(=O)c2c(O)ccc(N)c2C3=O)cc1,T/C,[15],86 % of control
same,T/C,[16],90 % of control
same,T/C,[18],90 % of control
CC(=O)Oc1ccccc1,T/C,"dose: 50.0 mg/kg/injection, schedule: Q04DX003 (ip), vehicle: saline with Tween-80",103 % of control
same,T/C,[17],100 % of control

# — PubChem BioAssay AID330 (DTP/NCI, 2004)
